Experimental data published in patent publication US9045415B2, “Targeting of EWS-FLI1 as anti-tumor therapy” (Georgetown University, priority 2006, dated 2015).
“And” between values parts separate entries of the source, which are not always exact repeats. Identical values can stand only once. “Also recorded” adds a separate entry of the source. Like-named read-outs stand apart in the source and are kept apart here.

Assays:
[1] = molecular target: T1, recombinant EWS-FLI1 (Homo sapiens, UniProt Q01543+Q01844); test: Surface plasmon resonance (Biacore) binding to EWS-FLI1
T1 sequence (Q01543 1-452): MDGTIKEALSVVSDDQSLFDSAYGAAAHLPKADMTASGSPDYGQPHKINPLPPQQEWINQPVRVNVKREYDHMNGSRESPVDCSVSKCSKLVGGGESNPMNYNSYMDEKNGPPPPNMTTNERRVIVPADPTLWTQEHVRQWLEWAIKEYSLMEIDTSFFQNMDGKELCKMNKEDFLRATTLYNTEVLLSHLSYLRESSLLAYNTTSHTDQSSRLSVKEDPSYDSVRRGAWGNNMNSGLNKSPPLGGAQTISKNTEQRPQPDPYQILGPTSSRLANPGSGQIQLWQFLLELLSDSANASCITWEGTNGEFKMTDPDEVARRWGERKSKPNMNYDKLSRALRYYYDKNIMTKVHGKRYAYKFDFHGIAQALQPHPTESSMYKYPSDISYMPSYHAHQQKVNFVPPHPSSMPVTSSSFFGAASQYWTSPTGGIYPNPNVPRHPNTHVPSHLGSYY
T1 sequence (Q01844 1-656): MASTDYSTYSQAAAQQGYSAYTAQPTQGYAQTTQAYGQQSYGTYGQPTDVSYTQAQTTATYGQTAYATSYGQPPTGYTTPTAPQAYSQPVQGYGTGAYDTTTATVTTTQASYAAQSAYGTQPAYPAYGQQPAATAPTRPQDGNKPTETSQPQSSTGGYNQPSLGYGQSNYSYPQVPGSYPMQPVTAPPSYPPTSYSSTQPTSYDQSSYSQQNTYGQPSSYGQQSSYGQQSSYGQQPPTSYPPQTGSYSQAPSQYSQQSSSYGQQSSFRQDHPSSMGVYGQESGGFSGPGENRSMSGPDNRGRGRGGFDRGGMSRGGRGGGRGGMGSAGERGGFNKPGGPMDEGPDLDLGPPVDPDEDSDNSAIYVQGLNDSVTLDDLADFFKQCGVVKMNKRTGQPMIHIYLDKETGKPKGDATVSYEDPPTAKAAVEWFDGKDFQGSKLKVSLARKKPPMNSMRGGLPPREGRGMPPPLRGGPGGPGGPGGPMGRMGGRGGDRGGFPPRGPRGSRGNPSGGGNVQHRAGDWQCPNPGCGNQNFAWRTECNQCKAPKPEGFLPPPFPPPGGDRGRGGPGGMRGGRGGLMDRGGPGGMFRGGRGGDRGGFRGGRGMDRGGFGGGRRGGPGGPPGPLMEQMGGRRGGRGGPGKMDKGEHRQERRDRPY
Procedure: Antp is conjugated to the amino terminal of all peptides used in these studies. Recombinant EWS-FLI1 (MW 55 kDa) was covalently linked to a CM5 chip at a density of 1200 RU, and E9RP (MW 4 kDa) was evaluated for binding. The E9RP analyte concentrations ranged from 0.03-30 μM, and all are shown in duplicate. E9RP bound to EWS-FLI1 with a KD of 4.0 μM.
An assay that will identify whether a peptide can disrupt RHA from interacting with EWS-FLI1 was developed. The Biacore device is a biosensor that utilizes surface plasmon resonance (SPR) to measure the strength of molecular interactions. SPR is the sensitive measurement of […] light based upon alterations of surface characteristics that change with molecules binding to a surface. The Biacore device combines SPR with a microfluidic system.
The KD of E9RP binding to EWS-FLI1 was calculated to be 4.0 μM (FIG. 4).
A surface plasmon resonance assay using the Biacore T100 was established with EWS-FLI1, prepared in our laboratory as previously published (Uren, A., Tcherkasskaya, O. & Toretsky, J. A. Recombinant EWS-FLI1 oncoprotein activates transcription. Biochemistry 43, 13579-13589 (2004)). DNA oligonucleotides were used to quality control the proper conformation of EWS-FLI1 on the surface of a CM5 chip. Small molecules obtained from the Developmental Therapeutics Program of the National Cancer Institute, NIH (http://dtp.nci.nih.gov/branches/dscb/repo_open.html) were prioritized based upon their molecular weight and solubility. An initial screening of molecules was performed at 1 or 10 μM compound, based on solubility. We used a model that compares the actual binding maximum (actual RU) with the theoretical binding maximum (RUtheor). […] Hits (RUactual to RUtheor of 0.7-2.0) were then reviewed by a team of medicinal chemists and those with structural potentials were selected for further study. Selected molecules were tested in vitro in a solution coimmunoprecipitation assay using recombinant EWS-FLI1 and GST-RHA (647-1075).

[2] = test system: RHA binding to EWS-FLI1; test: Solution immunoprecipitation of GST-RHA with recombinant EWS-FLI1; design: species or system human; details: for binding of GST-RHA (647-1075) to full-length recombinant EWS-FLI1: cell-free assay
Procedure: E9RP is the peptide region of RHA (E9R; SEQ ID NO: 29) fused to the Penetratin peptide (from the Antennapedia homeodomain; SEQ ID NO: 34). Immunoprecipitation of GST-RHA using recombinant EWS-FLI1 bound to a FLI1 antibody. […] E9RP is the sequence of aa 823-832 of human RHA that were synthesized.
(§1) In FIG. 13A, recombinant EWS-FLI1 was treated with NSC635437 for 30 minutes. GST-RHA (630-1020) was added and the complexes were then precipitated with antibody to EWS-FLI1 and Protein G beads. Resolved complexes showing the immunoprecipitated complex control without compound are in lanes 3 (0.1% DMSO) and 5 (0.01% DMSO). […] ESFT TC32 (◯) and neuroblastoma SK-N-AS (▪) were grown for 72 hours in the continuous presence of NSC635437. Cells were incubated in MTT reagent for 4 hours and the dried precipitate was dissolved isopropanol and the absorbance read at 570 nm. Each cell line was standardized to the growth of the DMSO control.
Protein lysates and immunoprecipitations were performed as previously published (Uren et al (2005)). Recombinant GST-RHA (647-1075) was prepared from crude bacterial extracts without further purification.
Reagents were developed to block RHA binding to EWS-FLI1 since RHA is necessary for optimal EWS-FLI1 activity. The E9R peptide corresponds to amino acids 823 to 832, located in the proximal HA2 region of RHA (FIG. 29A). A cell-free protein interaction assay was developed to test whether E9R peptide inhibits RHA binding to EWS-FLI1. […] It was determined whether disrupted EWS-FLI1/RHA binding inhibited cell growth.

[3] = test system: TC32 cells; test: Monolayer cell growth (MTT or WST), TC32; format: cell-based; details: for IC50: Homo sapiens, TC-32, 168 h, seven days in culture, read-out: IC50, TC32 cells growing in monolayer
Procedure: as §1
FIG. 30 provides data to show E9R peptide prevents EWS-FLI1 binding to RHA with specific detrimental effects upon ESFT growth and transformation. […] Scale bar equals 20 μm. […] Only expression of EGFP-E9R in TC71 reduced anchorage independent growth. […] Scale bar equals 20 μm.
FIG. 33 provides data showing YK-4-279 is potent and specific inhibitor of ESFT. […] Cell number was measured by MTT or WST reduction after seven days in culture. […] FIG. 33D cell lines expressing EWS-FLI1 compared to non-EWS-FLI1 malignant cell lines following 3 days in culture to establish the IC50 using WST assay. […] Graph plots level of fluorescence in treated divided by untreated lysate. […] Scale bar equals 200 μm.

[4] = FIG. 24 experiment, read-out: KD
[5] = SPR, EWS-FLI1 immobilized on CM5 chip, read-out: KD of binding to EWS-FLI1

RUactual:RUtheor ([1]; library screening, single concentration) | RHA binding to EWS-FLI1 in solution binding assay ([2]; 10 μM) | complex formation compared to DMSO matched controls ([2]; 10 μM and 1 μM, GST-RHA (630-1020)) | SMILES | Kd [1, 4] | Kd [1, 5] | binding of GST-RHA (647-1075) to full-length recombinant EWS-FLI1 [2] | IC50 [3] | cell growth (MTT) ([3]; 72 hours continuous presence)
– | – | – | COc1ccc(C(=O)CC2(O)C(=O)Nc3c(Cl)ccc(Cl)c32)cc1 (stereo not drawn) [YK-4-279, 4,7-Dichloro-3-hydroxy-3-[2-(4-methoxyphenyl)-2-oxoethyl]-1,3-dihydro-2H-indol-2-one] | 4560 nM | 9480 nM | significantly reduced the protein-protein interaction | 900 nM | –
0.9 | block the binding of RHA to EWS-FLI1 | decreased complex formation | O=C(CC1(O)C(=O)Nc2c(Cl)ccc(Cl)c21)c1ccc(Cl)cc1 (stereo not drawn) [NSC635437, 4,7-Dichloro-3-[2-(4-chlorophenyl)-2-oxoethyl]-3-hydroxyl-1,3-dihydro-2H-indol-2-one] | 1210 nM and 2020 nM | 2340 nM and 2000 nM | reduced the direct binding | 20000 nM | specifically cytotoxic to ESFT cells; also recorded: reduces ESFT
